Measured values reported in patent publication US20240246905A1 (University of Leicester, priority 2021, published 2024).
≈ marks a conversion by molar mass, not a printed value.

Experiments:
[1] = system: Staphylococcus aureus 15981; test: Disc diffusion (Kirby-Bauer), zone of inhibition; assay type: cell-based; details: Staphylococcus aureus 15981; 500 μg/mL; '/' = no zone; read-out: Zone of inhibition
Protocol: (§1) E. coli DH5α, P. aeruginosa PA01 and the 53 S. aureus strains were recovered from frozen (−80° C.) glycerol (15% v/v) stocks on Lysogeny agar (LA)—Gram negative and trypticase soy agar (TSA)—plates at 37° C. for 24 hours. Single colonies were placed in either 3 mL Lysogeny broth (LB)—Gram negative or trypticase soy broth (TSB)—Gram positive and incubated at 37° C., 250 rpm for 18 hours.
(§2) The antibiotic activity was determined using a Kirby-Bauer method according to Clinical Standard Laboratory Institute (CSLI) Guidelines (2017). Briefly, 180 μL of a 1 in 200 dilution (in LB or TSB) of overnight cultures of selected Gram negative and Gram positive bacteria were applied to an agar plate containing the solid growth medium, Mueller-Hinton agar (MHA). Sterile discs, inoculated with 50 μL of antibiotic, were first added to the agar plate before the plates were incubated for 24 hours at 37° C. Following incubation, the zone of inhibition (if it existed) was recorded.

[2] = system: various Staphylococcus aureus strains; test: Disc diffusion, Staphylococcus aureus strain study; assay type: cell-based; details: Staphylococcus aureus, 500 μg/mL
Text: At this point in the study it was decided to perform a disc diffusion assay study on 50 S. aureus strains. […] Moreover, by employing a range of mutant strains of S. aureus with specific gene-deletions, it was believed that if particular strains were resistant to the lead compounds, it could provide insights on the likely protein target of the lead antibiotics. However, all six of the compounds utilized in this study were able to inhibit growth of all 50 strains of S. aureus assayed at the chosen concentration of 500 μg/mL concentration (Table 5).
as §1, §2

[3] = system: MRSA 252; test: MIC, broth micro-dilution; assay type: cell-based, Staphylococcus aureus; details: Staphylococcus aureus, read-out: MIC
Protocol: as §1
(§3) Antibiotic MIC's were determined by a broth micro-dilution method according to Clinical Standard Laboratory Institute (CSLI) Guidelines (2017). Briefly, 96-well microplates, each containing 195 μL of the 1:2 dilution antibiotic in TSB, were inoculated with 5 μL of overnight cultured bacteria, diluted to give a starting bacterial concentration of 5×10^5 CFU/mL. The optical density of each well inoculated was recorded every 12 minutes over an 18 hour period at 37° C. The data from this was plotted in OriginPro8 (OriginLab) and sigmoidal curves fitted using the dose response function. Fitted values for each curve were used to calculate the MIC.

[4] = system: MSSA 476; test: MIC, broth micro-dilution; assay type: cell-based, Staphylococcus aureus; details: Staphylococcus aureus, MSSA, read-out: MIC
Protocol: as §1, §3

[5] = system: HEK293 cells; test: Cytotoxicity assay, resazurin (CO-ADD); details: set concentration of 32 μg/mL
Protocol: The cytotoxicity studies were performed by CO-ADD (The Community for Open Antimicrobial Drug Discovery), funded by the Wellcome trust (UK) and the University of Queensland, Australia.^(28) In this study, the compounds were screened against a human embryonic kidney cell line, HEK293, at a set concentration of 32 μg/mL.
DMEM supplemented with 10% FBS was used as growth media and the cells were incubated together with the compounds for 20 hours at 37° C. in 5% CO2.
Cytotoxicity (or cell viability) was measured by fluorescence, excitation: 560/10 nm, emission: 590/10 nm (F560/590), after addition of 5 μL of 25 μg/mL Resazurin (2.3 μg/mL final concentration) and after incubation for further 3 h at 37° C. in 5% CO2. The fluorescence intensity was measured using a Tecan M1000 Pro monochromator plate reader, using automatic gain calculation CC50 (concentration at 50% cytotoxicity) were calculated by curve fitting the inhibition values vs. log(concentration) using sigmoidal dose-response function, with variable fitting values for bottom, top and slope. The curve fitting was implemented using Pipeline Pilot's dose-response component.

[6] = system: MRSA 252; test: Disc diffusion (Kirby-Bauer), zone of inhibition; assay type: cell-based, Staphylococcus aureus; details: Staphylococcus aureus, 500 μg/mL, '/' = no zone, read-out: Zone of inhibition
Protocol: as §1, §2

[7] = system: MSSA 476; test: Disc diffusion (Kirby-Bauer), zone of inhibition; assay type: cell-based, Staphylococcus aureus; details: Staphylococcus aureus, 500 μg/mL, '/' = no zone, read-out: Zone of inhibition
Protocol: as §1, §2

`[C-]#[N+]C=Cc1ccc(O)cc1` [Compound 2, 4-(2-Isocyanovinyl)phenol] was tested, and the zone of inhibition at 500 µg/mL [1] was 22 mm, the zone of inhibition at 500 µg/mL ([2]; MRSA, strain MRSA 252) was 16 mm and the zone of inhibition at 500 µg/mL ([2]; strain ASARM 61) was 15 mm. It also gave a zone of inhibition at 500 µg/mL ([2]; strain ASARM 70) of 14 mm, a zone of inhibition at 500 µg/mL ([2]; strain ASARM 71) of 14 mm and a zone of inhibition at 500 µg/mL ([2]; strain ASARM 72) of 12 mm. The zone of inhibition at 500 µg/mL ([2]; strain ASARM 73) was 16 mm, the zone of inhibition at 500 µg/mL ([2]; strain ASARM 75) was 15 mm and the zone of inhibition at 500 µg/mL ([2]; strain ASARM 76) was 14 mm. The zone of inhibition at 500 µg/mL ([2]; strain ASARM 77) was 14 mm, the zone of inhibition at 500 µg/mL ([2]; strain ASARM 79) was 13 mm and the zone of inhibition at 500 µg/mL ([2]; strain ASARM 80) was 13 mm. It also gave a zone of inhibition at 500 µg/mL ([2]; strain EOE 3) of 12 mm, a zone of inhibition at 500 µg/mL ([2]; strain EOE 23) of 16 mm and a zone of inhibition at 500 µg/mL ([2]; strain EOE 30) of 18 mm. It also gave a zone of inhibition at 500 µg/mL ([2]; strain EOE 35) of 14 mm, a zone of inhibition at 500 µg/mL ([2]; strain EOE 41) of 17 mm and a zone of inhibition at 500 µg/mL ([2]; strain EOE 42) of 16 mm. The zone of inhibition at 500 µg/mL ([2]; strain EOE 45) was 15 mm, the zone of inhibition at 500 µg/mL ([2]; strain EOE 52) was 14 mm and the zone of inhibition at 500 µg/mL ([2]; strain EOE 54) was 16 mm. For the same compound, the zone of inhibition at 500 µg/mL ([2]; strain EOE 57) was 18 mm, the zone of inhibition at 500 µg/mL ([2]; strain S139_7_7) was 14 mm and the zone of inhibition at 500 µg/mL ([2]; strain S197_1_1) was 25 mm. For the same compound, the zone of inhibition at 500 µg/mL ([2]; strain S197_1_8) was 16 mm, the zone of inhibition at 500 µg/mL ([2]; strain S197_1_9) was 16 mm and the zone of inhibition at 500 µg/mL ([2]; strain S197_1_10) was 15 mm. It also gave a zone of inhibition at 500 µg/mL ([2]; strain S295_1_1) of 20 mm, a zone of inhibition at 500 µg/mL ([2]; strain S295_1_2) of 14 mm and a zone of inhibition at 500 µg/mL ([2]; strain S295_1_3) of 18 mm. For the same compound, the zone of inhibition at 500 µg/mL ([2]; strain S364_5_11) was 26 mm, the zone of inhibition at 500 µg/mL ([2]; strain S364_5_12) was 22 mm and the zone of inhibition at 500 µg/mL ([2]; strain Sa_TPS 3026) was 14 mm. The zone of inhibition at 500 µg/mL ([2]; strain Sa_TPS 3072) was 16 mm, the zone of inhibition at 500 µg/mL ([2]; strain Sa_TPS 3092) was 20 mm and the zone of inhibition at 500 µg/mL ([2]; strain Sa_TPS 3097) was 15 mm. It also gave a zone of inhibition at 500 µg/mL ([2]; strain Sa_TPS 3103) of 16 mm, a zone of inhibition at 500 µg/mL ([2]; strain Sa_TPS 3104) of 15 mm and a zone of inhibition at 500 µg/mL ([2]; strain Sa_TPS 3106) of 15 mm. For the same compound, the zone of inhibition at 500 µg/mL ([2]; strain Sa_TPS 3118) was 18 mm, the zone of inhibition at 500 µg/mL ([2]; strain Sa_TPS 3133) was 14 mm and the zone of inhibition at 500 µg/mL ([2]; strain Sa_TPS 3134) was 14 mm. The zone of inhibition at 500 µg/mL ([2]; strain USFL 008) was 14 mm, the zone of inhibition at 500 µg/mL ([2]; strain USFL 009) was 14 mm and the zone of inhibition at 500 µg/mL ([2]; strain USFL 012) was 16 mm. It also gave a zone of inhibition at 500 µg/mL ([2]; strain USFL 016) of 14 mm, a zone of inhibition at 500 µg/mL ([2]; strain USFL 018) of 15 mm and a zone of inhibition at 500 µg/mL ([2]; strain USFL 020) of 14 mm. It also gave a zone of inhibition at 500 µg/mL ([2]; strain USFL 021) of 16 mm, a zone of inhibition at 500 µg/mL ([2]; strain USFL 028) of 15 mm and a zone of inhibition at 500 µg/mL ([2]; strain USFL 035) of 15 mm. For the same compound, the zone of inhibition at 500 µg/mL ([2]; strain USFL 054) was 14 mm, the MIC [3] was 90 µg/mL (≈ 620 µM) and the MIC [4] was 100 µg/mL (≈ 689 µM). For the same compound, the “toxicity towards the HEK293 cell line (in words)” value [5] was “no toxicity”, the zone of inhibition at 500 µg/mL [6] was 22 mm and the zone of inhibition at 500 µg/mL [7] was 20 mm.
